This note sets out measurements from US12187707B2, “Pharmaceutical formulations of N-(2-(2-(dimethylamino)ethoxy)-4-methoxy-5-((4-(1-methyl-1H-indol-3-yl)pyrimidin-2-yl)amino)phenyl)acrylaminde and salts thereof” (Beta Pharma, Inc., priority 2017, dated 2025).

Molecules are shown by their SMILES.

This series is described as follows: Stability testing of Formulation 1 and 1·Ms by HPLC (assay and total related substances) after storage in a stability chamber. Type of series: physicochemical. The method, then:
Microcrystalline cellulose (392.43 mg), dicalcium phosphate (735.35 mg), sodium starch glycolate (45.09 mg), silicon dioxide (15.03 mg), and magnesium stearate (15.03 mg) were combined and blended with a vortex mixer in the amounts and proportions indicated in Table 1. The resulting mixture was filtered through a #35 mesh sieve to give Mixture A. A 20.05 mg portion of Mixture A was combined with 5.0 mg of 1·Ms (C27H30N6O3·1.06 CH3SO3H, purity=100%) of crystalline Form 2A in a 40 mL glass vial and blended thoroughly with a vortex mixer to afford Formulation 1, which has a theoretical composition as calculated in Table 1.
All samples were stored in a stability chamber at temperatures of −20° C., 50° C., and at 40° C./75% relative humidity for 2-week and 4-week periods and analyzed for stability. Closed-dish samples were capped and sealed with Parafilm. Open-dish samples were covered by aluminum foil that was pierced with a pinhole.
After reaching room temperature, each sample was added to a 40 mL sample vial containing 10 mL of diluent (0.05% TFA in H2O:MeCN=1:1 v/v) and sonicated for 10 minutes with occasional shaking. All samples were centrifuged at 14,000 rpm for 10 minutes and the supernatant was analyzed by HPLC. The working standard solution (5 mg of 1 Ms in 10 mL of diluent) was used as a reference. Results for Formulation 1 are shown in Table 3, in which purity is measured as percent (%) versus total related substances (TRS). As shown in […] and FIGS. 7 to 9, Formulation 1 was stable over an extended period.

Where [1] appears, read: 40° C. @ 75% relative humidity, 2 weeks.
Where [2] appears, read: 40° C. @ 75% relative humidity, 4 weeks.

For the molecule `C=CC(=O)Nc1cc(Nc2nccc(-c3cn(C)c4ccccc34)n2)c(OC)cc1OCCN(C)C` [1 · Ms, N-(2-(2-(Dimethylamino)ethoxy)-4-methoxy-5-((4-(1-methyl-1H-indol-3-yl)pyrimidin-2-yl)amino)phenyl)acrylamide methanesulfonate (1:1)], the Assay is given as 101.1% under setting [1]; 99.3% under setting [2]; 101.4% (50° C., 2 weeks); 99.9% (50° C., 4 weeks); 100.2% (Initial). Also, the “TRS (total related substances)” value runs as follows: under setting [1], 0.00%; under setting [2], 0.00%; (50° C., 2 weeks) 0.00%; (50° C., 4 weeks) 0.00%; (Initial) 0.00%.
